The target in one assay is T1, mTOR (Homo sapiens, UniProt P42345).
T1 construct: purchased Invitrogen Corporation (Carlsbad/Calif., USA) PV4753
In words: Biochemical assay for m-TOR by TR-FRET. Particulars: read-out: mTOR/IC50. The method, boiled down: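 mTOR (0.5 nM) phosphorylates GFP-4EBP1 (400 nM) with 8 μM ATP at rt in 50 mM HEPES pH 7.5, 10 mM MnCl2, 50 mM NaCl, 1 mM EGTA, 1 mM DTT; compounds 0.003–10 μM final. EDTA stop with Tb-anti-p4EBP1[pT46] antibody (0.5 nM); TR-FRET read after 15 min against no-enzyme and vehicle controls.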

The target of another assay is T2, PI3K delta (Homo sapiens, UniProt O00329).
T2 construct: for the full-length p110-d subunit are generated and fused by overlapping PCR; His tag (C); made in house; host or cells: baculovirus BV1060; Tn5 (Trichoplusia ni) or TiniPro insect cells
T2 sequence (O00329 with tags, fused parts or gaps limits assumed): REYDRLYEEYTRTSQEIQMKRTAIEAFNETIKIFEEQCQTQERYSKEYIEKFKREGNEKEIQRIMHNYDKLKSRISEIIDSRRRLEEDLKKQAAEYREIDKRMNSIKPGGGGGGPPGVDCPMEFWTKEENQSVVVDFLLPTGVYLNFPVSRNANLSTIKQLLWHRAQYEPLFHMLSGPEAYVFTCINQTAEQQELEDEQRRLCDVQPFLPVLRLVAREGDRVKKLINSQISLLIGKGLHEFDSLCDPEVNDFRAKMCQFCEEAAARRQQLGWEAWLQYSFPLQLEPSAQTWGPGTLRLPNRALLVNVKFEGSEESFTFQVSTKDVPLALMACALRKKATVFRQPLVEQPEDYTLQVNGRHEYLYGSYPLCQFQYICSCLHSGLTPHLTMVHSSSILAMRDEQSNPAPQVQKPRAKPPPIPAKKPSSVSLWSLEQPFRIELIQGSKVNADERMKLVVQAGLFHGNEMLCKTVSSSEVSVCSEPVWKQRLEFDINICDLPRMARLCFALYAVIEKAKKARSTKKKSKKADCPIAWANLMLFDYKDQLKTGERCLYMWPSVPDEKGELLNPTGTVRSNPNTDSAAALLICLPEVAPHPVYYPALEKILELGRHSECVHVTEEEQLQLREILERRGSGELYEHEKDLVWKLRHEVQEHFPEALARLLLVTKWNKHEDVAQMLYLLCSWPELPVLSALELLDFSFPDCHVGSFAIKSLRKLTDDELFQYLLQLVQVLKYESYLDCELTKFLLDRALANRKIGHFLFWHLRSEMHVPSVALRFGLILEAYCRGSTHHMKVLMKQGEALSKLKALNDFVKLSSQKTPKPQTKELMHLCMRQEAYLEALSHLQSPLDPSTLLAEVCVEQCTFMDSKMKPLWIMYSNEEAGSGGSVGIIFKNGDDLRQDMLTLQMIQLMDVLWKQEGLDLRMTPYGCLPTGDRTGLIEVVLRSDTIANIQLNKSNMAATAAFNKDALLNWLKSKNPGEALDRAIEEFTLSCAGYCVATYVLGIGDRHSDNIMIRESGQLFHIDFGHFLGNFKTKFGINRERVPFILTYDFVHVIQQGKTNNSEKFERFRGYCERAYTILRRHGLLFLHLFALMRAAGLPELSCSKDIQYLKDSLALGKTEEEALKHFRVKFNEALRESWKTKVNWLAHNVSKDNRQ
Briefly: PI3K delta kinase assay (Kinase-Glo luminescence). Format: biochemical. A digest of the protocol: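 IC50s derive from 8-point inhibition curves fitted to a 4-parameter logistic model. Reaction: 10 nM purified p110δ/p85 iSH2 fusion, 1 μM ATP, 10 μg/mL PI substrate, pH 7.5 Tris buffer with MgCl2, NaCl, CHAPS and DTT, run 60 min at room temperature; remaining ATP read by Kinase-Glo luminescence.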
(In general: In Kinase-Glo more light means more ATP remaining.)

The source of these data is patent publication US20100311714A1, “1H-IMIDAZO[4,5-c]QUINOLINONE COMPOUNDS” (priority 2009, published 2010).

Where two headings read alike, the source gives them in different places.

T1 sequence (P42345 1360-2549 limits assumed): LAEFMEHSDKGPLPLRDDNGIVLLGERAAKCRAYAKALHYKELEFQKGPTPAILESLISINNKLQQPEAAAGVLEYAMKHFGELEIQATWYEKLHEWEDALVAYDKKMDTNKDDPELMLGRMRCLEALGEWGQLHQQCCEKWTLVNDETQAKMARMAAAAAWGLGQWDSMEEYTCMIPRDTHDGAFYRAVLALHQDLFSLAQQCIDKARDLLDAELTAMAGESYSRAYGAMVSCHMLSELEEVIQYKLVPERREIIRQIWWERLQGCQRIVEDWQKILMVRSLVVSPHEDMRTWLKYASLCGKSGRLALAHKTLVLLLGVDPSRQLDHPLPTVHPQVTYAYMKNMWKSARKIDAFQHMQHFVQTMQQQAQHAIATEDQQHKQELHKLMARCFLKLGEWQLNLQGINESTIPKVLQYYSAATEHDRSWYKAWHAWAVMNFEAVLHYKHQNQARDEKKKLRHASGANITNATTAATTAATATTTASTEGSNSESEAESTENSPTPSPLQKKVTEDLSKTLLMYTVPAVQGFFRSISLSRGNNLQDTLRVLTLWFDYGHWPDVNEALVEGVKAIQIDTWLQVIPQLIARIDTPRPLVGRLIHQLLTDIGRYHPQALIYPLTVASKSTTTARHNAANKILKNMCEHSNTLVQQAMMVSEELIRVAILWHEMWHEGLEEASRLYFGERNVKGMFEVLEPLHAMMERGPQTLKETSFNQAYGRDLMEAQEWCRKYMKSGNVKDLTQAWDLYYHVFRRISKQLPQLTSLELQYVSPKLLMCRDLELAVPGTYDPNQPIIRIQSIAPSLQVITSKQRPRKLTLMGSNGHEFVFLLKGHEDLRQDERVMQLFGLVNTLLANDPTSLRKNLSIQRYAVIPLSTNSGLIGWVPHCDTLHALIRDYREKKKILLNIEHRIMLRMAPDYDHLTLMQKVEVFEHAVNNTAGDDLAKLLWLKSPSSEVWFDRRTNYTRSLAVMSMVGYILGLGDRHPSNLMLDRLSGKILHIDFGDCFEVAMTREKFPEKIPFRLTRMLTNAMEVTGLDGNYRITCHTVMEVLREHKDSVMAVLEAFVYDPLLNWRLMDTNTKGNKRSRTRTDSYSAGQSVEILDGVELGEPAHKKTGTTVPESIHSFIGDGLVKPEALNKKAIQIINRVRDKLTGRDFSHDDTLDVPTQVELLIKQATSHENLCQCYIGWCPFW

On to `COc1ccc(-c2ccc3ncc4c(c3c2)n(-c2cccnc2OC)c(=O)n4C)cn1` [Example 1.1, 1-(2-Methoxy-pyridin-3-yl)-8-(6-methoxy-pyridin-3-yl)-3-methyl-1,3-dihydro-imidazo[4,5-c]quinolin-2-one], for which the IC50 came to 36 nM at mTOR and 26 nM at PI3K delta (read-out: PI3Kdelta/IC50).

Take `COc1ncccc1-n1c(=O)n(C)c2cnc3ccc(-c4cnc(N)c(C(F)(F)F)c4)cc3c21` [Example 1.3, 8-(6-Amino-5-trifluoromethyl-pyridin-3-yl)-1-(2-methoxy-pyridin-3-yl)-3-methyl-1,3-dihydro-imidazo[4,5-c]quinolin-2-one]: the results for the IC50 at mTOR and at PI3K delta (read-out: PI3Kdelta/IC50) were 9 nM and 8 nM, respectively.

Turning to `CNc1ccc(-c2ccc3ncc4c(c3c2)n(-c2cccnc2OC)c(=O)n4C)cn1` [Example 1.4, 1-(2-Methoxy-pyridin-3-yl)-3-methyl-8-(6-methylamino-pyridin-3-yl)-1,3-dihydro-imidazo[4,5-c]quinolin-2-one], the figures for the IC50 on mTOR and on PI3K delta (read-out: PI3Kdelta/IC50) were 25 nM and 81 nM, respectively.

As for `CCOc1ccc(-c2ccc3ncc4c(c3c2)n(-c2cccnc2OC)c(=O)n4C)cn1` [Example 1.5, 8-(6-Ethoxy-pyridin-3-yl)-1-(2-methoxy-pyridin-3-yl)-3-methyl-1,3-dihydro-imidazo[4,5-c]quinolin-2-one], the IC50 worked out at 107 nM on mTOR and 166 nM on PI3K delta (read-out: PI3Kdelta/IC50).

Turning to `COc1ncccc1-n1c(=O)n(C)c2cnc3ccc(-c4cnc5c(ccn5C)c4)cc3c21` [Example 1.7, 1-(2-Methoxy-pyridin-3-yl)-3-methyl-8-(1-methyl-1H-pyrrolo[2,3-b]pyridin-5-yl)-1,3-dihydro-imidazo[4,5-c]quinolin-2-one], the IC50 on mTOR turned out to be 16 nM; at PI3K delta (read-out: PI3Kdelta/IC50) it was 101 nM.

In the case of `COc1ncccc1-n1c(=O)n(C)c2cnc3ccc(-c4ccc(F)nc4)cc3c21` [Example 1.8, 8-(6-Fluoro-pyridin-3-yl)-1-(2-methoxy-pyridin-3-yl)-3-methyl-1,3-dihydro-imidazo[4,5-c]quinolin-2-one], the IC50 turned out to be 87 nM at mTOR and 364 nM on PI3K delta (read-out: PI3Kdelta/IC50).

Regarding `COc1ncccc1-n1c(=O)n(C)c2cnc3ccc(-c4cnc(N(C)C)nc4)cc3c21` [Example 1.9, 8-(2-Dimethylamino-pyrimidin-5-yl)-1-(2-methoxy-pyridin-3-yl)-3-methyl-1,3-dihydro-imidazo[4,5-c]quinolin-2-one], the IC50 was found to be 14 nM at mTOR and 85 nM on PI3K delta (read-out: PI3Kdelta/IC50).

In the case of `CCOc1ccc(-c2ccc3ncc4c(c3c2)n(-c2cccnc2C)c(=O)n4C)cn1` [Example 2.1, 8-(6-Ethoxy-pyridin-3-yl)-3-methyl-1-(2-methyl-pyridin-3-yl)-1,3-dihydro-imidazo[4,5-c]quinolin-2-one], the IC50 on mTOR was determined as 42 nM; at PI3K delta (read-out: PI3Kdelta/IC50), 94 nM.

As for `CNc1ncc(-c2ccc3ncc4c(c3c2)n(-c2cccnc2C)c(=O)n4C)cn1` [Example 2.2, 3-Methyl-8-(2-methylamino-pyrimidin-5-yl)-1-(2-methyl-pyridin-3-yl)-1,3-dihydro-imidazo[4,5-c]quinolin-2-one], the IC50 at mTOR turned out to be 8 nM; on PI3K delta (read-out: PI3Kdelta/IC50) it was 22 nM.

Turning to `COc1ccc(-c2ccc3ncc4c(c3c2)n(-c2ncccc2C)c(=O)n4C)cn1` [Example 3.13, 8-(6-Methoxy-pyridin-3-yl)-3-methyl-1-(3-methyl-pyridin-2-yl)-1,3-dihydro-imidazo[4,5-c]quinolin-2-one], the IC50 on PI3K delta (read-out: PI3Kdelta/IC50) was found to be 249 nM.

Turning to `COc1ccc(-n2c(=O)n(C)c3cnc4ccc(-c5cnc(N)c(C(F)(F)F)c5)cc4c32)c(OC)n1` [Example 8.1, 8-(6-Amino-5-trifluoromethyl-pyridin-3-yl)-1-(2,6-dimethoxy-pyridin-3-yl)-3-methyl-1,3-dihydro-imidazo[4,5-c]quinolin-2-one], the IC50 on PI3K delta (read-out: PI3Kdelta/IC50) stood at 12 nM.

`CCOc1ccc(-c2ccc3ncc4c(c3c2)n(-c2ccc(N(C)C)nc2C)c(=O)n4C)cn1` [Example 19.3, 1-(6-Dimethylamino-2-methyl-pyridin-3-yl)-8-(6-ethoxy-pyridin-3-yl)-3-methyl-1,3-dihydro-imidazo[4,5-c]quinolin-2-one]: on PI3K delta (read-out: EPK_PI3Kdelta/IC50), the IC50 was 395 nM.
